Measured values from publication PMC10823733, “Promising antibacterial efficacy of arenicin peptides against the emerging opportunistic pathogen Mycobacterium abscessus” (Journal of Biomedical Science, 2024).
Where two headings read alike, the source gives them in different places. Positions of bridges follow the written chain, without caps; N, C: chain ends. Non-standard residues stand in square brackets, D forms with d. Residues, ends and D or L forms follow the SMILES beside them. Abu = CC[C@H](N)C(=O)O

Legend:
A498 cells = experiment: Cytotoxic assay on human cells (resazurin); format: cell-based
Protocol: (§1) The toxicity of each peptide was evaluated on human cell lines using a resazurin assay as previously described. Human lung epithelial cells BEAS-2B (ATCC CRL-9609), liver cells HepG2 (ATCC HB-8065), and kidney cells A498 (ATCC HTB-44) were used. All cells were cultured in Dulbecco's modified essential medium (DMEM) supplemented with 10% heat-inactivated fetal calf serum (FBS, Thermo Fisher Scientific), and 1% L-glutamine (Thermo Fisher Scientific) (DMEM^FBS) at 37 °C in a 5% CO2 incubator to subconfluent concentrations. Cells were detached with trypsin–EDTA solution (Thermo Fisher Scientific), and around 1 × 10^4 cells/well were seeded in 96-well flat-bottom microplates (Greiner Bio-One) with a lid, and cultured for additional 48–72 h at 37 °C and 5% CO2 until cell confluence. The medium was removed, and 100 µL of serial two-fold dilutions of the peptides in DMEM^FBS were added to each well. Following a 48 h-incubation period at 37 °C and 5% CO2, cell viability was evaluated using the resazurin assay as described above. Fluorescence of the resazurin metabolite resorufin (λex/λem = 530/590 nm) was measured after 2 h incubation at 37 °C and 5% CO2 in the dark, with a microplate reader (Biotek, Synergy Mx, Colmar, France). The cytotoxic concentration of peptide leading to 50% cell death as compared to the control was defined as the CC50, and was determined by fitting the RFU% sigmoidal dose–response curves in Kaleidagraph 4.2 software (Synergy Software). All experiments were conducted in triplicate.

[1] = format: cell-based, human
Protocol: as §1

human erythrocytes = format: cell-based; conditions: for HC10 / HC50: red cells of human, 1 h
Protocol: The hemolytic activity of each peptide was determined as previously described. Briefly, human erythrocytes (red blood cells, hRBC; Divbioscience, Ulvenhout, Netherlands) were washed 2-times with sterile phosphate buffered saline (PBS; Thermo Fisher Scientific) and pelleted by centrifugation at 800 rpm for 5 min; then resuspended in DMEM^FBS to a final erythrocyte concentration of 8% (v/v). Then, 100 µL of this hRBC solution was distributed to each well of sterile 96-well flat-bottom microplates (Greiner Bio-One) containing serial two-fold dilutions of arenicin, arenicin-Abu derivative or controls in DMEM^FBS to a final volume of 200 µL. After 1 h incubation at 37 °C, microplates were centrifuged at 800 rpm for 5 min. Then, 100 µL of supernatant were carefully transferred to a new 96-well microplate, and OD405 corresponding to the release of hemoglobin was measured using a microplate reader (Biotek, Synergy Mx, Colmar, France). DMEM^FBS and Triton-X100 at 0.1% (v/v) were used as negative (i.e., 0% hemolysis) and positive (i.e., 100% hemolysis) controls, respectively. The concentration of peptide leading to 10% and 50% of hemolysis compared to the positive control was defined as the HC10 and HC50, respectively, and was determined by fitting the dose–response curves in Kaleidagraph 4.2 software (Synergy Software). All experiments were done in triplicate.

[2] = format: cell-based, human; remark: listed apart in the source
Protocol: as §1

M. abscessus S and R = format: cell-based, Mycobacterium abscessus
Protocol: Mycobacterium abscessus S and R strains (CIP 104536^ T) were grown in Middlebrook 7H9 medium supplemented with 0.05% (v/v) Tween 80, 0.2% (v/v) glycerol and 10% (v/v) oleic acid–albumin–dextrose–catalase (OADC enrichment; BD Difco) (7H9-S^OADC) at 37 °C under stirring (200 rpm). We used Ar-1 (RWC^3VYAYVRVRGVLVRYRRC^20W) and Ar-1-Abu, in which the cysteines in position 3 and 20 were replaced by alpha-amino-n-butyric acid (Abu) residues. […]
For determining the antimicrobial activity of the different peptides, the Middlebrook 7H9 broth microdilution method was used in sterile 96-well flat-bottom Greiner Bio-One polypropylene microplates with lid (Thermo Fisher Scientific) using the resazurin microtiter assay (REMA). […] Fluorescence of the metabolite resorufin (λex/λem = 530/590 nm) was measured using a Tecan Spark 10 M ™ multimode microplate reader (Tecan Group Ltd, France). Relative fluorescence units (RFU) were defined as: RFU% = (test well FU/mean FU of control B wells) × 100. MIC50 and MIC90 values were determined by fitting the RFU% sigmoidal dose–response curves in Kaleidagraph 4.2 software (Synergy Software, Reading, PA). […]

M. abscessus R = experiment: Induction of resistance assay; format: cell-based, Mycobacterium abscessus; conditions: after 20–30 days of exposure
Protocol: (§2) Induction of bacterial resistance by Ar-1 was achieved by exposure of M. abscessus S and R to Ar-1 or to the control antibiotic clarithromycin (CLR) for 42 consecutive days, and with repeated broth microdilution susceptibility testing and subsequent MIC determination. After each MIC determination, the well containing the highest concentration of Ar-1 or CLR that allows bacterial growth was diluted 1:1000 in 7H9-S^OADC and used as inoculum for the next MIC assay with fresh amounts of Ar-1 or CLR.

M. abscessus S = experiment: Induction of resistance assay; format: cell-based, Mycobacterium abscessus; conditions: after 20–30 days of exposure
Protocol: as §2

SMILES | toxicity towards kidney A498 cells (in words) (A498 cells) | CC50 [1] [µM] | hemolytic activity on human erythrocytes (in words, considering HC10) (human erythrocytes) | HC10 (human erythrocytes) [µM] | HC50 (human erythrocytes) [µM] | CC50 [2] [µM] | mean MIC50 (M. abscessus S and R) [µM] | increase in MIC90 values (M. abscessus R) [fold] | increase in MIC90 values (M. abscessus S) [fold]
CC[C@H](NC(=O)[C@H](CCCNC(=N)N)NC(=O)[C@H](CCCNC(=N)N)NC(=O)[C@H](Cc1ccc(O)cc1)NC(=O)[C@H](CCCNC(=N)N)NC(=O)[C@@H](NC(=O)[C@H](CC(C)C)NC(=O)[C@@H](NC(=O)CNC(=O)[C@H](CCCNC(=N)N)NC(=O)[C@@H](NC(=O)[C@H](CCCNC(=N)N)NC(=O)[C@@H](NC(=O)[C@H](Cc1ccc(O)cc1)NC(=O)[C@H](C)NC(=O)[C@H](Cc1ccc(O)cc1)NC(=O)[C@@H](NC(=O)[C@H](CC)NC(=O)[C@H](Cc1c[nH]c2ccccc12)NC(=O)[C@@H](N)CCCNC(=N)N)C(C)C)C(C)C)C(C)C)C(C)C)C(C)C)C(=O)N[C@@H](Cc1c[nH]c2ccccc12)C(=O)O [Ar-1-Abu] (H-RW[Abu]VYAYVRVRGVLVRYRR[Abu]W-OH) | nontoxic | > 100 | totally inactive | > 100 | > 100 | > 100 |  |  | 
CC(C)C[C@@H]1NC(=O)[C@H](C(C)C)NC(=O)CNC(=O)[C@H](CCCNC(=N)N)NC(=O)[C@H](C(C)C)NC(=O)[C@H](CCCNC(=N)N)NC(=O)[C@H](C(C)C)NC(=O)[C@H](Cc2ccc(O)cc2)NC(=O)[C@H](C)NC(=O)[C@H](Cc2ccc(O)cc2)NC(=O)[C@H](C(C)C)NC(=O)[C@@H](NC(=O)[C@H](Cc2c[nH]c3ccccc23)NC(=O)[C@@H](N)CCCNC(=N)N)CSSC[C@@H](C(=O)N[C@@H](Cc2c[nH]c3ccccc23)C(=O)O)NC(=O)[C@H](CCCNC(=N)N)NC(=O)[C@H](CCCNC(=N)N)NC(=O)[C@H](Cc2ccc(O)cc2)NC(=O)[C@H](CCCNC(=N)N)NC(=O)[C@H](C(C)C)NC1=O [Ar-1] (H-RWCVYAYVRVRGVLVRYRRCW-OH; disulfide 3-20) | nontoxic | > 100 |  | 20.2 ± 1.8 | > 100 | > 100 | 11.5 ± 1.0 |  | 
CC[C@H]1OC(=O)[C@H](C)[C@@H](O[C@H]2C[C@@](C)(OC)[C@@H](O)[C@H](C)O2)[C@H](C)[C@@H](O[C@@H]2O[C@H](C)C[C@H](N(C)C)[C@H]2O)[C@](C)(OC)C[C@@H](C)C(=O)[C@H](C)[C@@H](O)[C@]1(C)O [CLR, clarithromycin] |  |  |  |  |  |  |  | 32 | 32
